In data set [1] the test system is STZ-induced diabetic rats. Nature of the data set: Fasting blood glucose in STZ-induced diabetic rats, eight weeks of treatment. It is filed as in vivo, Wistar rats. How it is done:
Animals: Eight weeks old Wistar rats (n=54; 24 males: 30 females) weighing 160-180 g were used in the study. During the eight weeks of the experiment, animals were kept in the animal house with a controlled temperature (25±2°C.), and 12 hours light/dark cycle. Water and standardized food access were provided at libitum.
Diabetes Induction: Prior to induction of diabetes, animals were given a high-fat diet (40% fat content) for two weeks. Diabetes was induced by administrating intraperitoneally a single dose of freshly prepared solution of streptozotocin (45 mg/kg) (Wako, Richmond, USA) in a chilled 0.1 M citrate buffer, pH 4.5. The normal control rats were injected with citrate buffer alone. Fasting blood glucose levels (FBG) were measured after 48 hours, and one week of diabetes induction with a blood glucose analyzer (Accu-Chek®, Roche, Mannheim, Germany). […]
Blood glucose levels and body weight of each group were monitored on weekly basis under fasting states. […] Serum- and isolated pancreatic insulin contents were measured by rat insulin ELISA kit (Amersham Biosciences, N.J., USA).
Statistical Analysis: All results are expressed as means ±SEM. The significance of differences between groups was determined by using one-way ANOVA, and multiple comparisons were performed by Tukey Alpha, post hoc analysis. […]

Data set [2] deals with STZ-induced diabetic rats. Nature of the data set: Pancreatic insulin contents by acid-ethanol extraction and rat insulin ELISA. The note with it: 100 mg/kg, 8 weeks, vs STZ-induced diabetic group. Type of data set: in vivo, Wistar rats. As for the experimental part:
(§1) Blood glucose levels and body weight of each group were monitored on weekly basis under fasting states. Blood samples were drawn from tail vein to measure the glucose levels by blood glucose analyzer. After 8 weeks of the experiments, rats under 8 hours of fasting states were anaesthetized by phenobarbital sodium (60 mg/kg), and blood samples were collected via cardiopuncture. Serum was stored at −80° C. until measurement of the insulin levels. A part of cryopreserved isolated pancreas was used for the measurement of pancreatic insulin contents. Briefly, pancreas were homogenized in an acid-ethanol solution (75% ethanol, 1.5% HCl, and 23.5% deionized water), and the mixture was kept for 4 hours at 4° C. to extract the insulin. Serum- and isolated pancreatic insulin contents were measured by rat insulin ELISA kit (Amersham Biosciences, N.J., USA).
A general note: ELISA stands for enzyme-linked immunosorbent assay.

Data set [3] deals with STZ-induced diabetic rats. Nature of the data set: Serum insulin levels by rat insulin ELISA. It is filed as in vivo, Wistar rats. The note with it: 100 mg/kg, 8 weeks, vs STZ-induced diabetic group. How it is done:
as §1

In data set [4] the test system is STZ-induced diabetic rats. Nature of the data set: Mortality on daily oral administration for eight weeks. Type of data set: in vivo, Wistar rats. The note with it: doses up to 100 mg/kg of body weight. How it is done:
(§2) Diabetes Induction: Prior to induction of diabetes, animals were given a high-fat diet (40% fat content) for two weeks. Diabetes was induced by administrating intraperitoneally a single dose of freshly prepared solution of streptozotocin (45 mg/kg) (Wako, Richmond, USA) in a chilled 0.1 M citrate buffer, pH 4.5. The normal control rats were injected with citrate buffer alone. Fasting blood glucose levels (FBG) were measured after 48 hours, and one week of diabetes induction with a blood glucose analyzer (Accu-Chek®, Roche, Mannheim, Germany). Rats with FBG levels of ≥200 mg/dL were considered diabetic, and randomly divided into diabetic and a compound 1-treated (100 mg/kg) groups. […] This indicated the safety of doses up to 100 mg/kg of body weight.

Data set [5] has as its system pancreatic islet in diabetic Wistar rats. Nature of the data set: Islets histopathology (H&E) and insulin immunohistochemistry. Type of data set: in vivo. The following applies: 100 mg/kg. As for the experimental part: Procedure: Pancreata isolated from rats were fixed with 3.7% neutral buffered formalin and embedded in paraffin. The 5 μm thick sections (n=6/group) were stained with eosin and hematoxilin, and evaluated for islets histopathology, after performing deparaffinization and dehydration steps. For immunohistochemistry analysis, briefly the antigen was first retrieved by heating for 40 min at 90° C. in 5.0 mM citrate buffer, pH 4.5. Prior to primary antibody treatment, each section was then cooled at room temperature, and incubated with 1× rotti immunoblocking solution (Carl Roth, Karlsruhe, Germany). The sections were immunostained with mouse K36AC10 monoclonal anti-insulin antibody (1:2,000) (Sigma Aldrich, St. Louis, Mo., USA) for 1 hour in a dark humidified chamber at 37° C. The sections were then immunostained with Alexa Fluor 594 donkey anti-mouse IgM secondary antibody (1:200)(Jackson ImmunoResearch, Pa., USA) for 1 hour in a dark chamber at 37° C. for detention. Finally, beta cells nuclei were stained with DAPI (1:5,000) (Sigma Aldrich, St, Louis, Mo., USA). The stained sections were observed under Nikon 90i microscope, equipped with DXM-1200 digital camera (Nikon, Tokyo, Japan).

For data set [6] the test system is unchanged. Nature of the data set: Quantification of pancreatic islet area and beta-cell number. It is filed as in vivo. The note with it: 100 mg/kg, per pancreas section, n=5. The source says:
Procedure: The pancreatic islet area (μ2) and the beta-cell number were quantified from overlapped images of pancreas that was immunostained with insulin and DAPI in all islet sections using NIS-Elements image analysis software AR 3.0. The pancreatic islet area (μ2) and the beta-cell number per section were enumerated by using five sections per pancreas, and five rats from each group.

The subject of data set [7] is STZ-induced diabetic rats. Nature of the data set: Dose optimization of anti-diabetic effect in STZ-induced diabetic rats. Type of data set: in vivo, Wistar rats. The following applies: 25, 50, and 100 mg/kg in STZ-induced diabetic rats. How it is done:
as §2

“Also recorded” adds a separate entry of the source.

Take `O=C(O)c1ccccc1Nc1ccc([N+](=O)[O-])cc1[N+](=O)[O-]` [Compound 1, 2,4-Dinitroanilino-benzoic acid]: in data set [1] (100 mg/kg of body weight, long term treatment, vs untreated diabetic group), the “FBG levels (in words)” value is “significant reduction in FBG levels”. Moreover, the FBG in data set [1] (STZ-induced diabetic rats, 100 mg/kg, eight weeks of treatment, mean ± SE, 06 rats, *P<0.05 vs diabetic group) was 126 ± 8* mg/dL. In data set [2], the pancreatic insulin contents result was “increase in pancreatic insulin contents; also recorded: significantly restored”. Further, the serum insulin levels entry in data set [3] was “marked increase in serum insulin levels”. Besides, in data set [4], the mortality entry is reported as “without significant mortality”. The “degenerative changes / islet atrophy (histopathology)” value in data set [5] (H&E staining, STZ-induced diabetic rats) is recorded as “markedly attenuated the STZ-induced islet atrophy; also recorded: significantly attenuated”. The “immunofluorescent staining for insulin / residual beta-cell function” value in data set [5] (anti-insulin immunostaining, vs STZ-induced diabetic group) is “increased immunoreactivity for insulin; also recorded: restored the residual beta-cell function”. Moreover, in data set [6], the beta-cell number result was “significantly restored” and the islet area entry is listed as “significantly restored”. Further, in data set [7], the “anti-diabetic effect, dose optimization” value is “dose dependent anti-diabetic effect was observed with a significant effect at 100 mg/kg”.

For the origin of these results see US10183000B1, “2, 4-dinitroanilino-benzoic acid: novel insulinotropic agent for the treatment of diabetes” (priority 2017, dated 2019).
